Measured values published in US7541346B2, “Pancratistatin cyclic phosphate prodrugs and phenpanstatin cyclic phosphate prodrugs” (Arizona Board of Regents, a body corporate of the State of …, priority 2003, dated 2009).

Tests used:
Type in all cases: cell-based
[1] = tested on: BXPC-3; assay: Human cancer cell line inhibitory activity, Pancreas-a BXPC-3
[2] = tested on: MCF-7; assay: Human cancer cell line inhibitory activity, Breast MCF-7
[3] = tested on: KM20L2; assay: Human cancer cell line inhibitory activity, Colon KM20L2
[4] = tested on: SF268; assay: Human cancer cell line inhibitory activity, CNS SF268
[5] = tested on: DU-145; assay: Human cancer cell line inhibitory activity, Prostate DU-145
[6] = tested on: NCI-H460; assay: Human cancer cell line inhibitory activity, Lung-NSC NCI-H460

Compound | GI50 Pancreas-a BXPC-3 [1] | GI50 Breast MCF-7 [2] | GI50 Colon KM20L2 [3] | GI50 CNS SF268 [4] | GI50 Prostate DU-145 [5] | GI50 Lung-NSC NCI-H460 [6]
O=C1N[C@H]2[C@H](OP(=O)([O-])[O-])[C@H](O)[C@@H](O)[C@H](O)[C@@H]2c2cc3c(c(O)c21)OCO3.[Mg+2] [Compound 4e, Magnesium Pancratistatin 4-O-Phosphate] | 0.40 µg/mL | 0.44 µg/mL | 0.36 µg/mL | 0.36 µg/mL | 0.22 µg/mL | 0.42 µg/mL
O=C1N[C@H]2[C@H](OP(=O)([O-])[O-])[C@H](O)[C@@H](O)[C@H](O)[C@@H]2c2cc3c(c(O)c21)OCO3.[Ca+2] [Compound 4f, Calcium Pancratistatin 4-O-Phosphate] | 0.25 µg/mL | 0.36 µg/mL | 0.23 µg/mL | 0.26 µg/mL | 0.12 µg/mL | 0.27 µg/mL
O=C1N[C@H]2[C@H](OP(=O)([O-])[O-])[C@H](O)[C@@H](O)[C@H](O)[C@@H]2c2cc3c(c(O)c21)OCO3.[Zn+2] [Compound 4g, Zinc Pancratistatin 4-O-Phosphate] | 0.27 µg/mL | 0.47 µg/mL | 0.30 µg/mL | 0.38 µg/mL | 0.17 µg/mL | 0.42 µg/mL
C1CNCCN1.O=C1N[C@H]2[C@H](OP(=O)(O)O)[C@H](O)[C@@H](O)[C@H](O)[C@@H]2c2cc3c(c(O)c21)OCO3 [Compound 4h, Piperazinium Pancratistatin 4-O-Phosphate] | 0.31 µg/mL | 0.38 µg/mL | 0.24 µg/mL | 0.27 µg/mL | 0.21 µg/mL | 0.35 µg/mL
C1COCCN1.O=C1N[C@H]2[C@H](OP(=O)(O)O)[C@H](O)[C@@H](O)[C@H](O)[C@@H]2c2cc3c(c(O)c21)OCO3 [Compound 4i, Morpholinium Pancratistatin 4-O-Phosphate] | 0.29 µg/mL | 0.40 µg/mL | 0.37 µg/mL | 0.38 µg/mL | 0.18 µg/mL | 0.46 µg/mL
O=C1N[C@H]2[C@H](OP(=O)(O)O)[C@H](O)[C@@H](O)[C@H](O)[C@@H]2c2cc3c(c(O)c21)OCO3.c1c[nH]cn1 [Compound 4j, Imidazolium Pancratistatin 4-O-Phosphate] | 0.25 µg/mL | 0.33 µg/mL | 0.13 µg/mL | 0.21 µg/mL | 0.13 µg/mL | 0.25 µg/mL
C=C[C@H]1CN2CC[C@H]1C[C@H]2[C@H](O)c1ccnc2ccc(OC)cc12.O=C1N[C@H]2[C@H](OP(=O)(O)O)[C@H](O)[C@@H](O)[C@H](O)[C@@H]2c2cc3c(c(O)c21)OCO3 [Compound 4k, Quinium Pancratistatin 4-O-Phosphate] | 0.23 µg/mL | 0.35 µg/mL | 0.22 µg/mL | 0.28 µg/mL | 0.15 µg/mL | 0.31 µg/mL
C=C[C@H]1CN2CC[C@H]1C[C@@H]2[C@@H](O)c1ccnc2ccc(OC)cc12.O=C1N[C@H]2[C@H](OP(=O)(O)O)[C@H](O)[C@@H](O)[C@H](O)[C@@H]2c2cc3c(c(O)c21)OCO3 [Compound 4l, Quinidium Pancratistatin 4-O-Phosphate] | 0.34 µg/mL | 0.38 µg/mL | 0.23 µg/mL | 0.27 µg/mL | 0.20 µg/mL | 0.36 µg/mL
O=C1N[C@H]2[C@@H]3OP(=O)([O-])O[C@@H]3[C@@H](O)[C@H](O)[C@@H]2c2cc3c(c(O)c21)OCO3.[Na+] [Compound 5a, Sodium Pancratistatin 3,4-cyclic Phosphate] | 3.3 µg/mL | 2.9 µg/mL | 3.7 µg/mL | 2.9 µg/mL | 2.3 µg/mL | 3.8 µg/mL
